Results published in US7223580B2, “N-acetylglucosamine transferase, nucleic acid encoding the same and use thereof in diagnosing cancer and/or tumor” (National Institute of Advanced Industrial Science and …, priority 2002, dated 2007).

Target: T1, β3GnT-7 (Homo sapiens, UniProt Q8NFL0)
T1 construct: made in house; host or cells: Sf21 insect cells (baculovirus, Bac-to-Bac); purified from culture supernatant on anti-M1 (anti-FLAG) resin
T1 sequence (Q8NFL0 75-401): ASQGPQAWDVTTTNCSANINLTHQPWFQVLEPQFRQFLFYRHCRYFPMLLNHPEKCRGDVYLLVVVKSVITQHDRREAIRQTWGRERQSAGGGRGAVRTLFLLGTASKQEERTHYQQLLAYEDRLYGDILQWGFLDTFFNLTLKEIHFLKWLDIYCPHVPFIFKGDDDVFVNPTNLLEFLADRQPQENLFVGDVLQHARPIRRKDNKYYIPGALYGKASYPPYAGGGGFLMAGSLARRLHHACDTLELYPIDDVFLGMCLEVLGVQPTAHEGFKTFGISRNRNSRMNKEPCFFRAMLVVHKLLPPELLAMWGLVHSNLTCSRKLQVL
Experiment: Search of acceptor substrate of β3Gn-T7 (UDP-[14C]GlcNAc transfer, TLC radioactivity)
Assay type: biochemical
Details: acceptor substrate 10 nmol, donor UDP-GlcNAc 480 μM, 37° C. for 5 hours, pH7.2
From the text: Using the following reaction systems, the acceptor substrate was searched. As the “acceptor substrate” in the reaction solution described below, each of the following was used and whether each of them functioned as the acceptor or not was investigated: pNp-α-Glc, pNp-β-Glc, pNp-α-GlcNAc, pNp-β-GlcNAc, pNp-α-Gal, pNp-β-Gal, pNp-α-GalNAc, Bz-α-GalNAc, pNp-α-Xyl, pNp-β-Xyl, pNp-α-Fuc, Bz-α-Man, Bz-α-ManNAc, LacCer, GalCer typel and Bz-β-lactoside (all of them are from SIGMA) and Galβ1-4GlcNAc-α-pNp (TRONTO RESEARCH CHEMICAL).
The reaction solution (the numbers in the parentheses indicate the final concentrations) contained acceptor substrate (10 nmol), sodium cacodylate buffer (pH7.2) (50 mM), Triton CF-54 (trademark) (0.4%), MnCl2 (10 mM), UDP-GlcNAC (480 μM) and UDP-[^14C]GlcNAC (175 nCi) and CDP-colline (5 mM), to which 10 μl of the β3Gn-T7 enzyme solution and H2O were added to attain a final volume of 25 μl.
The reaction mixture was allowed to react at 37° C. for 5 hours, and after completion of the reaction, 200 μl of 0.1 M KCl was added, followed by light centrifugation and collection of the supernatant. […] After developing the mixture up to 5 mm from the top end of the TLC plate, the plate was dried and the intensity of the radioactivity taken in the product was measured using Bio Image Analyzer FLA3000 (FUJI PHOTO FILM).

OC[C@H]1O[C@@H](O[C@H]2[C@H](O)[C@@H](O)[C@H](OCc3ccccc3)O[C@@H]2CO)[C@H](O)[C@@H](O)[C@H]1O [Bz-β-lactoside]
whether it functioned as the acceptor (transfer of GlcNAc by β3GnT-7): activity to transfer GlcNAc

CC(=O)N[C@H]1[C@@H](Oc2ccc([N+](=O)[O-])cc2)O[C@H](CO)[C@@H](O[C@@H]2O[C@H](CO)[C@H](O)[C@H](O)[C@H]2O)[C@@H]1O [Galβ1-4Glc(NAc)-α-pNp, Galβ1-4GlcNAc-α-pNp]
whether it functioned as the acceptor (transfer of GlcNAc by β3GnT-7): activity to transfer GlcNAc
